The compounds below were run against T1, C5a anaphylatoxin chemotactic receptor 1 (Homo sapiens) (UniProt P21730) (assay: Tested in vitro for the inhibition against C5a anaphylatoxin chemotactic receptor assayed on human monocyte cell line U937 at 30 uM). Conditions: U-937.
T1 sequence (whole entry): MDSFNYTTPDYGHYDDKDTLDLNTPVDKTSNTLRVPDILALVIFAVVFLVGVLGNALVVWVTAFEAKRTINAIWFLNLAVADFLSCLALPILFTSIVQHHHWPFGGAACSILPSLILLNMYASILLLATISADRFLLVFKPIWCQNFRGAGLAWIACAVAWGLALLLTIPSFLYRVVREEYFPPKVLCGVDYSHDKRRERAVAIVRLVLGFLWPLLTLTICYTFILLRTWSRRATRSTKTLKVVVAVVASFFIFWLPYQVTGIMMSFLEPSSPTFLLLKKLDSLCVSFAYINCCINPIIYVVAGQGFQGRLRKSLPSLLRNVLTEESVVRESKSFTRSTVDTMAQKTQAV
Format: cell-based

Compared with C/N=C(/N)Nc1ccc(Oc2ccccc2)c(OCc2ccccc2)c1, CC/N=C(\N)Nc1ccc(OCc2ccccc2)c(OCc2ccccc2)c1 is higher in inhibition: 32% for the first, 40% for the second.

C/N=C(/N)Nc1ccc(OCc2ccccc2)c(-c2ccc(F)cc2)c1 and CNC(=N)Nc1ccc(OC)c(OCc2ccccc2)c1 are the same in inhibition: 20% for the first, 20% for the second.

What follows are compounds tested against T1, C5a anaphylatoxin chemotactic receptor 1 (Homo sapiens) (assay: Tested in vitro for the inhibition against C5a anaphylatoxin chemotactic receptor assayed on human monocyte cell line U937; Inactive at 30 uM). Conditions: U-937.
Format: cell-based

CNC(=N)Nc1ccc(OCc2ccccc2)c(-c2ccccc2OC)c1 and CC(=N)Nc1ccc(OCc2ccccc2)c(OCc2ccccc2)c1 cannot be ordered by inhibition: less than 20% for the first, less than 20% for the second.

Nc1ccc(OCc2ccccc2)c(OCc2ccccc2)c1 and NCc1ccc(OCc2ccccc2)c(OCc2ccccc2)c1 cannot be ordered by inhibition: less than 20% for the first, less than 20% for the second.

C/N=C(/N)Nc1ccc(OCc2ccccc2)c(OCCc2ccccc2)c1 and C/N=C(/N)c1ccc(OCc2ccccc2)c(OCc2ccccc2)c1 cannot be ordered by inhibition: less than 20% for the first, less than 20% for the second.

N=C(N)NCc1ccc(OCc2ccccc2)c(OCc2ccccc2)c1 and CNC(=N)Cc1ccc(OCc2ccccc2)c(OCc2ccccc2)c1 cannot be ordered by inhibition: less than 20% for the first, less than 20% for the second.

Each compound was assayed against T2, C5a anaphylatoxin chemotactic receptor 1 (Homo sapiens, UniProt P21730) (assay: Compound was evaluated for the antagonistic activity against C5a anaphylatoxin chemotactic receptor in human neutrophil C5a stimulated respiratory burst assay). Conditions: not given.
T2 sequence (P21730 whole entry): T1 sequence (whole entry)
Format: functional

Compound CNC(N)=Nc1ccc(OCCc2ccccc2)c(-c2ccccc2)c1 has an IC50 of 0.8 µM.

These compounds were tested against T2, C5a anaphylatoxin chemotactic receptor 1 (assay: Binding affinity against C5a anaphylatoxin chemotactic receptor assayed on human monocyte cell line U937). Conditions: not given.
Format: cell-based, U-937

Going from CNC(N)=Nc1ccc(OCCCCc2ccccc2)c(OCc2ccccc2)c1 to CNC(N)=Nc1ccc(OCCCc2ccccc2)c(OCc2ccccc2)c1, the IC50 rises from 4 µM to 6 µM (1.5-fold). The first is the more potent here.

First: CNC(N)=Nc1ccc(OCc2ccccc2)c(-c2ccccc2)c1
Second: CNC(N)=Nc1ccc(OCCCc2ccccc2)c(-c2ccccc2)c1
The IC50 of the first is 2-fold higher: 2 µM for the first, 1 µM for the second.

Going from CNC(N)=Nc1ccc(OCc2ccccc2)c(OC2CCCC2)c1 to CNC(N)=Nc1ccc(OCCC2CCCCC2)c(OCc2ccccc2)c1, the IC50 falls from 25 µM to 9 µM (2.8-fold).

First: C/N=C(\N)Nc1ccc(OCc2ccccc2)c(OCc2ccccc2)c1
Second: N=C(N)Nc1ccc(OCc2ccccc2)c(OCc2ccccc2)c1
The IC50 of the first is lower: 30 µM for the first, greater than 100 µM for the second.

C/N=C(/N)Nc1ccc(OCc2ccccc2)c(-c2cccc(F)c2)c1 and C/N=C(/N)Nc1ccc(OCc2ccccc2)c(-c2cccs2)c1 are within 1.5-fold of each other in IC50: 8 µM for the first, 9 µM for the second.

First: C/N=C(/N)Nc1ccc(OCCC2CCCCC2)c(-c2ccccc2)c1
Second: C/N=C(/N)Nc1ccc(OCC2CCCCC2)c(OCc2ccccc2)c1
The IC50 of the first is 8-fold lower: 1 µM for the first, 8 µM for the second.

First: CCCCOc1ccc(NC(=N)NC)cc1OCc1ccccc1
Second: CNC(=N)Nc1ccc(OCc2ccccc2)c(-c2cccc(OC)c2)c1
The IC50 of the first is 3.3-fold higher: 30 µM for the first, 9 µM for the second. The second is the more potent here.

First: CNC(N)=Nc1ccc(OCCc2ccccc2)c(OCc2ccccc2)c1
Second: C/N=C(/N)Nc1ccc(OCc2ccccc2)c(Oc2ccccc2)c1
The IC50 of the first is 1.9-fold higher: 7.5 µM for the first, 4 µM for the second.

Going from CNC(N)=Nc1ccc(OCC2CCCCC2)c(-c2ccccc2)c1 to CNC(N)=Nc1ccc(OCc2ccccc2)c(-c2ccc(Cl)cc2)c1, the IC50 rises from 3 µM to 50 µM (17-fold).

First: C/N=C(/N)Nc1ccc(OCc2ccccc2)c(-c2cccc3ccccc23)c1
Second: CNC(N)=Nc1ccc(OCc2ccccc2)c(-c2ccc(OC)cc2)c1
The IC50 of the first is 12-fold lower: 4.5 µM for the first, 54 µM for the second. The first is the more potent here.
